Each structure is given as a SMILES string.

This is an account of results in patent publication US20260284186A1, “[…] MODIFIERS FOR THE TREATMENT OF SUBJECTS WITH UNDER[…] SYSTEMS AND COMPOSITIONS THEREOF” (priority 2023, published 2026).

The test system of one test is multiple viruses. The test can be described thus: In vitro stimulation of cells with CDA or CDA/HBcAg, IFN induction and virus elimination, Example 14. In kind it is cell-based.
A further test deals with SARS and IAV. In kind it is in vivo. The note with it: BRM without antigen.
The subject of a further test is RBD-ACE2 interaction. The test can be described thus: ACE2-binding inhibitory activity of the induced antibodies. The note with it: sera after three administrations; FIG. 3. In kind it is in vivo, Balb/c mice. An excerpt:
FIG. 3. Inhibitory activity of the antibody response induced by the groups with the strongest anti-RBD response after three administrations, following the immunization schedule described in example 1. A) G2; B) G4; C) G6; D) G11; E) G12 and F) Monoclonal antibody (McAb) CBSSRBD-S.8 used as standard curve to plot the results in the five ELISA plates.
Thus, we studied the antibody response effect on the ACE2-binding inhibitory activity.
The resulting antibody response is capable of inhibiting the binding of the antigen to their cellular receptor ACE2, a process that resembles the interaction of the virus to their cellular receptor. This inhibitory effect is essential to ensure the strong antiviral effect of the immune response against an infectious agent/virus through the specific neutralizing activity. […] This functional aspect of the antibody response is linked to the increased quality of the same response in terms of avidity. […] The quality of the experiment was ensured with the use of a McAb in the standard curve of the five plates used in the study and the reproducibility of the inhibitory effect (FIG. 3F) as well as with the assessment of the ACE2 inhibitory binding in a group that received the placebo of CDA but no antigen ([…]).

For another test, the system named is SARS-COV-2 RBD. Put plainly: Anti-RBD IgG response, CDA dose escalation, Example 13. In kind it is in vivo, Balb/c mice.

With `Nc1ncnc2c1ncn2[C@@H]1O[C@@H]2COP(=O)(O)O[C@H]3[C@@H](O)[C@H](n4cnc5c(N)ncnc54)O[C@@H]3COP(=O)(O)O[C@H]2[C@H]1O` [CDA, cyclic bis(3′-5′) diadenylic acid], the “Stimulatory effects and type I / type 2 IFN induction” value with multiple viruses (in vitro stimulation of cells, synergy in vivo) is listed as “enhancement of different channels of stimulatory effects”. For the same compound, the “Elimination of viruses in vitro” value with multiple viruses (multiple viruses) is reported as “in vitro elimination of multiple viruses”. For the same compound, in the test with SARS and IAV, the “Antibody response against the viral antigens after in vivo treatment” value is given as “high avidity antibody response”. Moreover, the “Viral titers of SARS and IAV” value in the test with SARS and IAV (acutely infected subjects and in vitro infected & treated cells, before or after infection) was “quantitative reduction of the viral titers”. Further, in the test with RBD-ACE2 interaction, the “Inhibitory effect on RBD-ACE2 binding” value is given as “strong inhibitory effect”. The “Dose of CDA inducing the strongest immune response” value in the test on SARS-COV-2 RBD (RBD at 50 μg dose (1 mg/mL)) was 5 µg. Besides, the “Optimal dose of CDA per mice” value with SARS-COV-2 RBD (with 12.5 μg of RBD) is 10 µg.
